In patent US9250231B2, “Method for selecting mevalonate synthesis modulators using cells derived from human pluripotent cells” (Centre d'Etude des Cellules Souches, priority 2010, dated 2016):

Assays:
[1] = tested on: <<MSC>> SA01 cells derived from hES cells (SA01); assay: Comparative toxicity of statins in 384-well plates, Cell Titer Glow, with and without mevalonate; assay type: cell-based, human; conditions: for cell viability as percentage of the result without any treatment, With Mevalonate / cell viability as percentage of the result without any treatment, Without Mevalonate: human, 72 h
Method: For this experiment, the differentiated <<MSC>> SA01 cells derived from hES cells (SA01) were tested in 384-well plates by using a distribution robot and cell viability was measured by Cell Titer Glow after 72 hours of cultivation.

[2] = tested on: <<MSC>> WT cells derived from hES cells; assay: Toxicity of simvastatin in 384-well multiwells, Cell Titer Glow; assay type: cell-based, human; conditions: 72 hours, 20% fetal calf serum, 2,000 cells per well, DMSO 0.2% 987206
Excerpt: Determination of the number of cells by the ATP amount is therefore possible. This approach allows automated readout of the number of cells. Similar results are obtained by using traces of mitochondrial activity. Differentiated cells of the MSC type, derived from hES cells, <<MSC>> WT, were sown on 384 multiwells gelatinized beforehand by using a distribution robot of the Bravo type, at the concentration of 2,000 cells per well.

[3] = tested on: SSEA4; assay: Flow cytometry of SSEA4 on MSC type cells derived from hES SA01; assay type: cell-based, human; conditions: added to control FCS20%; FGF2 10 ng/ml, AA2P 1 mM; control 7
Method: (§1) The role of FGF2 and of ascorbic acid 2-phosphate on the growth capacities of the isolated cells according to the method of the invention was analyzed on cells derived from human embryonic stem cells SA01. The cells are cultivated in the presence of 20% fetal calf serum (control condition) and in the presence or in the absence of FGF2 and of ascorbic acid 2-phosphate (AA2P).
The presence of SSEA4 on cells cultivated under these different conditions were analyzed by flow cytometry by using a specific antibody directed against SSEA4.

[4] = tested on: cells derived from human embryonic stem cells SA01; assay: Growth capacity (maximum number of cells before senescence) of MSC type cells cultivated with or without FGF2 and AA2P; assay type: cell-based; conditions: versus control FCS20%
Method: as §1

[5] = tested on: MSC cells derived from hES human cells SA01; assay: Prestwick bank screening with and without mevalonate, Cell Titer Glow; assay type: cell-based; conditions: 2.5 μM, 72 h, mevalonate 2 mM, 96 wells, 20% fetal calf serum

Molecule	cell viability as percentage of the result without any treatment, With Mevalonate [1] [%]	cell viability as percentage of the result without any treatment, Without Mevalonate [1] [%]	Average fluorescence intensity (SSEA4) [3]	increase of the amount of accumulated maximum cells [4]	other results
CC(C)n1c(/C=C/C(O)CC(O)CC(=O)O)c(-c2ccc(F)cc2)c2ccccc21 (centres unmarked) [Fluvostatin]	104	32.8			comparative toxicity of statins [1]: more toxic than simvastatin
CCC(C)(C)C(=O)O[C@H]1C[C@@H](C)C=C2C=C[C@H](C)[C@H](CC[C@@H]3C[C@@H](O)CC(=O)O3)[C@H]21 [Simvastatin]	98.3	48.7			amount of cells by Cell Titer Glow, Statin 2 μM [2]: 474583
FGF2: growth factor from the FGF family added to the culture medium			10	less than 5 log factor	
O=C1O[C@H]([C@@H](O)CO)C(O)=C1OP(=O)(O)O [AA2P, Ascorbic Acid 2-Phosphate]			7	less than 6 log factor	
Mevinolin					selected in screening 1 (toxicity of more than 35% in the absence, less than 20% in the presence of mevalonate) [5]: isolated
